In the supplement of paper PMC10307832:

Columns and labels:
Experiment in all cases: relative viability (nuclei count vs DMSO), 5 days (fraction); higher = more cells survive
HCC-827 = system: HCC-827
Method in brief: (§1)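 Lung cancer cell lines, seeded in 1536-well plates, were treated the following day by pin tool with a single drug or with five library-drug doses (not always all listed) in √10 steps on top of a fixed anchor-drug dose. Cells were fixed and nuclei stained in one step after 5 days, and nuclei were counted. Relative viability is the nuclei count for treated wells divided by that for vehicle wells, reported as medians of duplicate plates.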

HCC-78 = system: HCC-78
Method in brief: as §1

HCC-366 = system: HCC-366
Method in brief: as §1

SK-MES-1 = system: SK-MES-1
Method in brief: as §1

NCI-H1437 = system: NCI-H1437
Method in brief: as §1

SK-LU-1 = system: SK-LU-1
Method in brief: as §1

NCI-H727 = system: NCI-H727
Method in brief: as §1

COR-L 105 = system: COR-L 105
Method in brief: as §1

UMC-11 = system: UMC-11
Method in brief: as §1

NCI-H1944 = system: NCI-H1944
Method in brief: as §1

NCI-H2085 = system: NCI-H2085
Method in brief: as §1

EPLC-272H = system: EPLC-272H
Method in brief: as §1

NCI-H2023 = system: NCI-H2023
Method in brief: as §1

NCI-H358 = system: NCI-H358
Method in brief: as §1

HCC-15 = system: HCC-15
Method in brief: as §1

COR-L23 = system: COR-L23
Method in brief: as §1

NCI-H2342 = system: NCI-H2342
Method in brief: as §1

NCI-H1395 = system: NCI-H1395
Method in brief: as §1

NCI-H661 = system: NCI-H661
Method in brief: as §1

LCLC-103H = system: LCLC-103H
Method in brief: as §1

NCI-H2405 = system: NCI-H2405
Method in brief: as §1

HARA = system: HARA
Method in brief: as §1

NCI-H1975 = system: NCI-H1975
Method in brief: as §1

## CCCCCCCCCCCC1=C(O)C(=O)C=C(O)C1=O [Embelin] + COc1cc2c(Oc3ccc(NC(=O)C4(C(=O)Nc5ccc(F)cc5)CC4)cc3F)ccnc2cc1OCCCN1CCOCC1 [Foretinib] (partner 0.25 µM)
HCC-827; first compound 0.08 µM
  relative viability: 0.993
HCC-827; first compound 0.8 µM
  relative viability: 1.11
HCC-827; first compound 2.53 µM
  relative viability: 1.03
HCC-827; first compound 8 µM
  relative viability: 1.16
HCC-78; first compound 0.08 µM
  relative viability: 0.544
HCC-78; first compound 0.8 µM
  relative viability: 0.601
HCC-78; first compound 2.53 µM
  relative viability: 0.65
HCC-78; first compound 8 µM
  relative viability: 0.559
HCC-366; first compound 0.08 µM
  relative viability: 0.906
HCC-366; first compound 0.8 µM
  relative viability: 1.03
HCC-366; first compound 2.53 µM
  relative viability: 0.94
HCC-366; first compound 8 µM
  relative viability: 0.99
SK-MES-1; first compound 0.08 µM
  relative viability: 0.943
SK-MES-1; first compound 0.8 µM
  relative viability: 1.22
SK-MES-1; first compound 2.53 µM
  relative viability: 0.972
SK-MES-1; first compound 8 µM
  relative viability: 0.94
NCI-H1437; first compound 0.08 µM
  relative viability: 1.25
NCI-H1437; first compound 0.8 µM
  relative viability: 1.24
NCI-H1437; first compound 2.53 µM
  relative viability: 1.27
NCI-H1437; first compound 8 µM
  relative viability: 1.06
SK-LU-1; first compound 0.08 µM
  relative viability: 0.953
SK-LU-1; first compound 0.8 µM
  relative viability: 0.861
SK-LU-1; first compound 2.53 µM
  relative viability: 1.04
SK-LU-1; first compound 8 µM
  relative viability: 0.888
NCI-H727; first compound 0.08 µM
  relative viability: 0.793
NCI-H727; first compound 0.8 µM
  relative viability: 1.13
NCI-H727; first compound 2.53 µM
  relative viability: 1.11
NCI-H727; first compound 8 µM
  relative viability: 0.761
COR-L 105; first compound 0.08 µM
  relative viability: 1.04
COR-L 105; first compound 0.8 µM
  relative viability: 1.05
COR-L 105; first compound 2.53 µM
  relative viability: 1.18
COR-L 105; first compound 8 µM
  relative viability: 0.807
UMC-11; first compound 0.08 µM
  relative viability: 1.06
UMC-11; first compound 0.8 µM
  relative viability: 1.14
UMC-11; first compound 2.53 µM
  relative viability: 1.21
UMC-11; first compound 8 µM
  relative viability: 1.28
NCI-H1944; first compound 0.08 µM
  relative viability: 0.842
NCI-H1944; first compound 0.8 µM
  relative viability: 0.968
NCI-H1944; first compound 2.53 µM
  relative viability: 0.989
NCI-H1944; first compound 8 µM
  relative viability: 0.998
NCI-H2085; first compound 0.08 µM
  relative viability: 1.04
NCI-H2085; first compound 0.8 µM
  relative viability: 0.986
NCI-H2085; first compound 2.53 µM
  relative viability: 1.05
NCI-H2085; first compound 8 µM
  relative viability: 0.843
EPLC-272H; first compound 0.08 µM
  relative viability: 0.736
EPLC-272H; first compound 0.8 µM
  relative viability: 0.866
EPLC-272H; first compound 2.53 µM
  relative viability: 0.916
EPLC-272H; first compound 8 µM
  relative viability: 0.65
NCI-H2023; first compound 0.08 µM
  relative viability: 0.819
NCI-H2023; first compound 0.8 µM
  relative viability: 0.891
NCI-H2023; first compound 2.53 µM
  relative viability: 0.887
NCI-H2023; first compound 8 µM
  relative viability: 0.75
NCI-H358; first compound 0.08 µM
  relative viability: 0.753
NCI-H358; first compound 0.8 µM
  relative viability: 0.81
NCI-H358; first compound 2.53 µM
  relative viability: 0.976
NCI-H358; first compound 8 µM
  relative viability: 0.869
HCC-15; first compound 0.08 µM
  relative viability: 1.01
HCC-15; first compound 0.8 µM
  relative viability: 1.08
HCC-15; first compound 2.53 µM
  relative viability: 1.14
HCC-15; first compound 8 µM
  relative viability: 1.08
COR-L23; first compound 0.08 µM
  relative viability: 1
COR-L23; first compound 0.8 µM
  relative viability: 1.13
COR-L23; first compound 2.53 µM
  relative viability: 1.01
COR-L23; first compound 8 µM
  relative viability: 1.14
NCI-H2342; first compound 0.08 µM
  relative viability: 1.12
NCI-H2342; first compound 0.8 µM
  relative viability: 1.12
NCI-H2342; first compound 2.53 µM
  relative viability: 1.18
NCI-H2342; first compound 8 µM
  relative viability: 1.07
NCI-H1395; first compound 0.08 µM
  relative viability: 0.904
NCI-H1395; first compound 0.8 µM
  relative viability: 1.13
NCI-H1395; first compound 2.53 µM
  relative viability: 1.08
NCI-H1395; first compound 8 µM
  relative viability: 0.953
NCI-H661; first compound 0.08 µM
  relative viability: 1.03
NCI-H661; first compound 0.8 µM
  relative viability: 1.08
NCI-H661; first compound 2.53 µM
  relative viability: 0.994
NCI-H661; first compound 8 µM
  relative viability: 0.976
LCLC-103H; first compound 0.08 µM
  relative viability: 0.736
LCLC-103H; first compound 0.8 µM
  relative viability: 0.842
LCLC-103H; first compound 2.53 µM
  relative viability: 0.912
LCLC-103H; first compound 8 µM
  relative viability: 0.755
NCI-H2405; first compound 0.08 µM
  relative viability: 1.15
NCI-H2405; first compound 0.8 µM
  relative viability: 1.14
NCI-H2405; first compound 2.53 µM
  relative viability: 1.11
NCI-H2405; first compound 8 µM
  relative viability: 1.06
HARA; first compound 0.08 µM
  relative viability: 0.827
HARA; first compound 0.8 µM
  relative viability: 0.968
HARA; first compound 2.53 µM
  relative viability: 1.18
HARA; first compound 8 µM
  relative viability: 0.942
NCI-H1975; first compound 0.08 µM
  relative viability: 1.06
NCI-H1975; first compound 0.8 µM
  relative viability: 0.97
NCI-H1975; first compound 2.53 µM
  relative viability: 1.01
NCI-H1975; first compound 8 µM
  relative viability: 1.07
